{"source": "patent US20130281400A1", "about": "“Metabolic Downregulation for Cell Survival” (Wake Forest University Health Sciences, priority 2010, published 2013)", "key": {"[1]": {"test_system": "C2C12 cells, murine myoblasts", "assay": "MTS assay of metabolic activity of viable cells under hypoxia (0.1% O2) with daily adenosine", "type": "cell-based", "method": "500 μL of a cell suspension (C2C12 cells, murine myoblasts) in high glucose Dulbecco's modified Eagle's medium (DMEM, Gibco) containing 10% FBS, 500 U/mL penicillin and 500 μg/mL streptomycin was placed in each well of a 48-well culture plate at a density of 1052 (FIG. 2) and 2105 (FIG. 3) cells/cm^2. Cells were incubated for 24 hr in normoxic conditions (21% O2, 37° C.) prior to placement in a hypoxic chamber. At day 0, the plates designated as the hypoxic group were transferred to the hypoxic chamber (0.1% O2). […] Another group receiving daily doses of adenosine ([…], achieved by serial dilution) was incubated for up to 7 days under hypoxia and then placed back into normoxic conditions without additional supply of adenosine. Adenosine was refreshed by the daily exchange of media in which adenosine was completely dissolved. Media to be used under hypoxia was placed in the hypoxic chamber 24 hr prior to use for deoxygenation down to 2% O2. The metabolic activity of viable cells at each pre-determined time point was assessed using an MTS assay, which measures mitochondrial activity of cells. Adenosine was used with C2C12 at passage 17, the murine myoblast cell lines, because of their relatively high metabolic activity and proliferation rate. […] Based on the microscopic observations of these cell stained with Giemsa, it was not seen that whole population of cells completely reached the state of necrosis up to the latest time point tested, as a few populations of attached cells were still observed. It is expected that those remaining cells eventually die. […] The effect of dose was also evaluated on a degree of cellular activity (FIG. 3). […] Based on this outcome, the minimum effective concentration of adenosine appears to be about 1 mM under this experimental condition. The reason for 1 mM treated cells not declining up to the duration tested may potentially have been the lower starting number of cells. […] Finally, the long term effect of adenosine was tested on resuming its proliferation after its supply is stopped. The duration tested under the effect of adenosine was 22 days, as the angiogenesis process is known to take 2-3 weeks (Cotton, 1996, Trends Biotechnol, 14(5):158-62; […] et al., 1996, Biomaterials, 17(3):277-84) for completion."}, "muscle tissue": {"test_system": "muscle tissue", "assay": "adenosine injected into muscle tissue", "type": "in vivo", "text": "Adenosine, a nucleoside known for its function as an energy transferring molecule, is also known to function as a modulator of hypoxia-induced ion-channel arrest, which eventually leads to lowering of ATP consumption, and thus oxygen demand. Moreover, it is also known to stimulate angiogenesis. Thus, the present invention provides for the application of adenosine to cell-seeded scaffolds under the hypoxic condition to improve cell survival rate via the downregulation of metabolic rate, and thus lowering oxygen demand and consumption. As contemplated herein, agonists to adenosine may also be used in a similar manner to lower the oxygen demand of cells and tissues. […] Adenosine may be administered alone as a composition or within a formulation, as would be understood by those skilled in the art."}}, "data": [{"smiles": "Nc1ncnc2c1ncn2[C@@H]1O[C@H](CO)[C@@H](O)[C@H]1O", "note": "[adenosine]", "values": [{"measurement": "cellular metabolic activity pattern at 1 mM adenosine", "setting": "[1]; 1 mM adenosine, hypoxia, FIG. 3", "value": "showed a similar pattern with the cells grown in the hypoxic condition without supply of adenosine"}, {"measurement": "long term effect: resuming proliferation after adenosine supply is stopped", "setting": "[1]; 22 days under the effect of adenosine, various doses, FIG. 4", "value": "still demonstrated the ability to restore its normal proliferation rate"}, {"measurement": "cellular (metabolic) activity under hypoxic conditions", "setting": "[1]; C2C12 passage 17, hypoxia 0.1% O2, daily adenosine up to 7 days, FIG. 2", "value": "maintained a steady state of cellular activity"}, {"measurement": "effect of dose on degree of cellular activity", "setting": "[1]; adenosine dose increased from 1 to 10 mM, hypoxic conditions, FIG. 3", "value": "an escalation of steady hypometabolic state was maintained under hypoxic conditions"}, {"measurement": "resumption of normal metabolic activity after removal of adenosine", "setting": "[1]; adenosine removed at day 7, cells returned to normoxic conditions, FIG. 2", "value": "resumed their normal metabolic activity two days after adenosine was removed at day 7"}, {"measurement": "minimum effective concentration of adenosine", "setting": "[1]; hypoxic conditions, dose study, FIG. 3", "value": "about 1 mM"}, {"measurement": "cellular viability and tissue architecture", "setting": "muscle tissue", "value": "preservation of cellular viability and tissue architecture"}]}]}
